# Laboratory results from patent US5463062A, “Substituted cyclohexane derivatives, processes for their preparation and the use of the compounds for treating diseases” (Hoechst Aktiengesellschaft, priority 1992, dated 1995).
# Tested on: glucose-6-phosphatase
# Assay: not given
# Settings: in words, literature; cited from earlier work
row,SMILES,inhibition of glucose-6-phosphatase
1,"S=C=Nc1ccccc1C=Cc1ccccc1N=C=S [2,2'-diisothiocyanatostilbene]",non-specific inhibitors of glucose-6-phosphatase
2,CC(=O)Oc1ccccc1C=Cc1ccccc1N=C=S [2-isothiocyanato-2'-acetoxystilbene],non-specific inhibitors of glucose-6-phosphatase
3,"O=C(O)c1cc(SSc2ccc([N+](=O)[O-])c(C(=O)O)c2)ccc1[N+](=O)[O-] [5,5'-dithiobis-2-nitrobenzoic acid]",non-specific inhibitors of glucose-6-phosphatase
4,O=C(CCc1ccc(O)cc1)c1c(O)cc(O)cc1O[C@@H]1O[C@H](CO)[C@@H](O)[C@H](O)[C@H]1O [phlorrhizin],non-specific inhibitors of glucose-6-phosphatase

# Molecular target: T1, glucose-6-phosphatase system (Rattus norvegicus, UniProt F7EWB7)
# T1 construct: To prepare the microsomal fraction containing the glucose-6-phosphatase, fresh liver organs from male Wistar rats were used; from tissue; host or cells: liver of male Wistar rats, microsomal fraction
# T1 sequence (F7EWB7 1-429): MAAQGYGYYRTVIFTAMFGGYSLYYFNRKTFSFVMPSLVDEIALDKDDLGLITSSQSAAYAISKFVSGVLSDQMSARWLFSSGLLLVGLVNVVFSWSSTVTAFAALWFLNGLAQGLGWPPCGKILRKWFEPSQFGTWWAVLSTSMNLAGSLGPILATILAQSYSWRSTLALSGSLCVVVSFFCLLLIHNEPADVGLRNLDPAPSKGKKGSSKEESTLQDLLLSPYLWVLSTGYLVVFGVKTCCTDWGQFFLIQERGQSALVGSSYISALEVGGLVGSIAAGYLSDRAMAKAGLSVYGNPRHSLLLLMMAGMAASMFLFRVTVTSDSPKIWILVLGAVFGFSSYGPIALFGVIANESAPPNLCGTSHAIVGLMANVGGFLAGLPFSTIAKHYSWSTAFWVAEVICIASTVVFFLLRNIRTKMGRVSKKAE
# Assay: enzyme assay of glucose-6-phosphatase activity in liver microsomes (phosphate liberated from glucose-6-phosphate)
# Type: biochemical, male Wistar rats
# Settings: TABLE; rat liver microsomes, glucose-6-phosphate 1 mmol/l, pH 7.0, 20 min at room temperature
# Protocol: The effect of the compounds according to the invention on the glucose-6-phosphatase system has been investigated in an enzyme assay in liver microsomes.
# To prepare the microsomal fraction containing the glucose-6-phosphatase, fresh liver organs from male Wistar rats were used and processed as described in the literature [Canfield, W. K. and Arion, W. J., J. Biol. Chem. 263, 7458-7460, (1988)]. This microsomal fraction can be stored at -70° C. without significant loss of activity for at least 2 months. The glucose-6-phosphatase activity was detected as indicated in the literature [Arion, W. J. in Methods Enzymol. 174, Academic Press 1989, pages 58-67) by determining the phosphate liberated from glucose-6-phosphate. 0.1 ml of assay mixture contained glucose-6-phosphate(1 mmol/l), the test substance, 0.1 mg of microsomal fraction and 100 mmol/l HEPES buffer (4-(2-hydroxyethyl)piperazine-1-ethanesulfonic acid), pH 7.0. The reaction was started by adding the enzyme. After 20 min at room temperature, the reaction was stopped by adding 0.2 ml of phosphate reagent. The sample was incubated at 37° C. for 30 min, and the absorption (A) of the blue color was subsequently measured at 570 nm. The inhibitory activity of the test substance was found by comparison with a control reaction which contained no test substance, using the formula [formula]
# Where necessary, the inhibitory effect of the test substance was determined as a function of the test substance concentration employed, and from this the concentration for 50% inhibition of enzyme activity (IC50) was calculated.
# The IC50 was determined for the compounds listed hereinafter: […]
row,SMILES,IC50
1,O=C(CC(C1CCCCC1)n1ccnc1)O[C@@H]1C[C@](OCCCc2ccc(Cl)cc2)(C(=O)O)C[C@@H](O)[C@H]1O (some centres unmarked) [Example 69],170 µM
2,O=C(CCC1CCCCC1)O[C@@H]1C[C@](OCC2CC2c2ccc(Cl)cc2)(C(=O)O)C[C@@H](O)[C@H]1O (some centres unmarked) [Example 113],3.7 µM
3,O=C(CCCCC1CCCCC1)O[C@@H]1C[C@](OCCCc2ccc(Cl)cc2)(C(=O)O)C[C@@H](O)[C@H]1O [Example 114],5 µM
4,O=C(O[C@@H]1C[C@](OCCCc2ccc(Cl)cc2)(C(=O)O)C[C@@H](O)[C@H]1O)C1CCCCC1 [Example 115],8.9 µM
5,O=C(O[C@@H]1C[C@](OCCCc2ccc(Cl)cc2)(C(=O)O)C[C@@H](O)[C@H]1O)c1snnc1-c1ccccc1 [Example 116],4.5 µM
6,CC(C)CCC(=O)O[C@@H]1C[C@](OCCCc2ccc(Cl)cc2)(C(=O)O)C[C@@H](O)[C@H]1O [Example 117],41 µM
7,C=Cc1ccc(C(=O)O[C@@H]2C[C@](OCCCc3ccc(Cl)cc3)(C(=O)O)C[C@@H](O)[C@H]2O)cc1 [Example 118],1.3 µM
8,O=C(COc1ccccc1)O[C@@H]1C[C@](OCCCc2ccc(Cl)cc2)(C(=O)O)C[C@@H](O)[C@H]1O [Example 119],12 µM
9,O=C(CCC1CCCCC1)O[C@@H]1C[C@](OCCCc2ccc(Cl)cc2)(C(=O)O)C[C@@H](O)[C@H]1O [Example 120],0.69 µM

# Same assay, conditions: in words
row,SMILES,inhibition of the glucose-6-phosphatase system
1,"O=C(/C=C/c1ccc(O)cc1)O[C@@H]1C[C@](OCc2cccc3ccccc23)(C(=O)O)C[C@H](O)[C@H]1O [Example 14, [1S,3R,4R,5S]-1-(1-naphthylmethyl)oxy-3-[(E)-3-(4-hydroxyphenyl)-2-propenoyl]oxy-4,5-dihydroxycyclohexanecarboxylic acid]",inhibitors of the glucose-6phosphatase system

# Same assay, conditions: rat liver microsomes, glucose-6-phosphate 1 mmol/l, pH 7.0, 20 min at room temperature
row,SMILES,IC50
1,"O=C(/C=C/c1ccc(O)cc1)O[C@@H]1C[C@](OCc2ccccc2)(C(=O)O)C[C@H](O)[C@H]1O [Example 1, [1S,3R,4R,5S]-3-[(E)-3-(4-hydroxyphenyl)propenoyl]oxy-4,5-dihydroxy-1-phenylmethyloxy-cyclohexanecarboxylic acid]",190 µM
2,"O=C(/C=C/c1ccc(O)cc1)O[C@@H]1C[C@](OCc2cccs2)(C(=O)O)C[C@H](O)[C@H]1O [Example 2, [1S,3R,4R,5S]-3-[(E)-3-(4-hydroxyphenyl)-2-propenoyl]oxy-4,5-dihydroxy-1-(2-thienylmethyl)oxycyclohexanecarboxylic acid]",110 µM
3,"C#CCO[C@@]1(C(=O)O)C[C@H](O)[C@@H](O)[C@H](OC(=O)/C=C/c2ccc(O)cc2)C1 [Example 3, [1S,3R,4R,5S]-3-[(E)-3-(4-hydroxyphenyl)-2-propenoyl]oxy-4,5-dihydroxy-1-(2-propynyl)oxycyclohexanecarboxylic acid]",560 µM
4,"O=C(O[C@@H]1C[C@](OCCCc2ccc(Cl)cc2)(C(=O)O)C[C@H](O)[C@H]1O)c1ccccn1 [Example 4, [1S,3R,4R,5S]-1-(4-chlorophenylpropyl)oxy-4,5-dihydroxy-3-(2-pyridinecarbonyl)oxycyclohexanecarboxylic acid]",26 µM
5,"O=C(CCc1ccc(O)cc1)O[C@@H]1C[C@](OCCCc2ccc(Cl)cc2)(C(=O)O)C[C@@H](O)[C@H]1O [Example 44, [1S,3R,4R,5S]-1-(4-chlorophenylpropyl)oxy-3-[(E)-3-(4-hydroxyphenyl)propoyl]oxy-4,5-dihydroxycyclohexanecarboxylic acid]",9.3 µM

# Same assay, conditions: rat liver microsomes, glucose-6-phosphate 1 mmol/l, pH 7.0, 20 min at room temperature; unit printed as "82 M"
row,SMILES,IC50
1,"CCCO[C@@]1(C(=O)O)C[C@H](O)[C@@H](O)[C@H](OC(=O)/C=C/c2ccc(O)cc2)C1 [Example 8, [1S,3R,4R,5S]-3-[(E)-3-(4-hydroxyphenyl)-2-propenoyl]oxy-4,5-dihydroxy-1-propyloxycyclohexanecarboxylic acid]",230 µM
